Results taken from ChEMBL document CHEMBL1201862, “PubChem BioAssay data set” (2004).
Activity calls are given as the source filed them.

Columns and labels:
[1] = growth suppression of PTEN-null colon cells, dose response, cell-based, HCT116 PTEN knockout (AID 1047); format: functional;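 further: HCT116 colon tumor cells with PTEN knocked out; cells exposed to compound for 60 hours before readout; potency for loss of cell viability measured by luminescence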
[2] = cells; format: functional, cell-based
[3] = biological target: T1, Trace amine-associated receptor 1 (Homo sapiens, UniProt Q96RJ0); assay: Fluorescence-based cell-based high throughput dose response assay to identify agonists of the human trace amine associated receptor 1 (TAAR1).; format: functional
T1 sequence (Q96RJ0 whole entry): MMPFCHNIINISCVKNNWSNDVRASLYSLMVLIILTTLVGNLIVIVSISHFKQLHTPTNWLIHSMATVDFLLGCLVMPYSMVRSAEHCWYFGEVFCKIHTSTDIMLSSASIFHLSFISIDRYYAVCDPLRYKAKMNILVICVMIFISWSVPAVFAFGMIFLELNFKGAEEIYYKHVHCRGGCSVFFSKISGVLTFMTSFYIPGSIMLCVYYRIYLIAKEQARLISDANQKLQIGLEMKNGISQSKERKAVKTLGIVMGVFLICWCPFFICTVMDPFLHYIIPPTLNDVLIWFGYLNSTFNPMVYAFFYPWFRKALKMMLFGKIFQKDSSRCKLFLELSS

[4] = biological target: T1, Trace amine-associated receptor 1; assay: Counterscreen for agonists of the human trace amine associated receptor 1 (hTAAR1): Fluorescence-based cell-based high throughput dose response assay to identify hTAAR1 agonist that also desensitize TAAR1 receptor response.; format: functional
[5] = cells; format: functional, cell-based; remark: listed apart in the source
[6] = Luminescence Cell-Based Dose Retest to Confirm Inhibitors of Cancer Stem Cells. [Related pubchem assays (depositor defined):AID2717, AID2721]; format: functional; conditions: Homo sapiens
[7] = growth suppression of beta-catenin-knockout colon cells, dose response, cell-based, HCT116, human colon tumor (AID 1045); format: functional;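 further: HCT116 colon tumor cells with beta catenin knocked out; cells exposed to compound for 60 hours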
[8] = biological target: T2, RNA-binding protein pos-1 (Caenorhabditis elegans, UniProt G5EF15); assay: inhibitors of POS-1/mex-3 RNA binding, dose response, biochemical, fluorescence polarization (AID 1964);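 further: purified POS-1 fused to maltose binding protein made in E. coli; potency of compounds blocking POS-1 binding to fluorescent RNA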
T2 sequence (G5EF15 whole entry): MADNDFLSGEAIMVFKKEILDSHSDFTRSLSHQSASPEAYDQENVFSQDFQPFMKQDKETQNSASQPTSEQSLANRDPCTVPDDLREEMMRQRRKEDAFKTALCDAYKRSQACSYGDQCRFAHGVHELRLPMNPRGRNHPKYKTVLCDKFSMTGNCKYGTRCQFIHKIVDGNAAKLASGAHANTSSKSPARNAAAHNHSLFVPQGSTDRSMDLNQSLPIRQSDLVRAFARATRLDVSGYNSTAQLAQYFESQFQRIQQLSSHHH

[9] = biological target: T3, Zinc finger protein mex-5 (Caenorhabditis elegans, UniProt Q9XUB2); assay: MEX-5/TCR-2 RNA interaction inhibitors, dose response, biochemical, C. elegans, fluorescence polarization (AID 1960)
T3 sequence (Q9XUB2 whole entry): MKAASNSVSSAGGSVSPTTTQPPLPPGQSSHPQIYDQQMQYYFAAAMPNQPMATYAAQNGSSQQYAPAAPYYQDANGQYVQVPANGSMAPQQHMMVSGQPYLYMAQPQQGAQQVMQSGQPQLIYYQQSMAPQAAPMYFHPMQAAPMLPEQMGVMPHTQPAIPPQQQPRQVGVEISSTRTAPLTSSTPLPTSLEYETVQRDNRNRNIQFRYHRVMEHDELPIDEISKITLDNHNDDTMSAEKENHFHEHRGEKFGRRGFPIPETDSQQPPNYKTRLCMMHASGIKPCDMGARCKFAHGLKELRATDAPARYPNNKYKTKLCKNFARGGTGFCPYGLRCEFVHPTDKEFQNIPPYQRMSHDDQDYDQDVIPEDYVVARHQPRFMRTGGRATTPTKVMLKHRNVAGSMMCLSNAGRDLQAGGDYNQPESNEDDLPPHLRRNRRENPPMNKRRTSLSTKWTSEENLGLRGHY

[10] = biological target: T4, Leucine aminopeptidase (Plasmodium falciparum 3D7, UniProt Q8IL11); assay: P. falciparum M17LAP inhibitors, primary screen, biochemical, fluorogenic H-Leu-NHMec substrate, 1536-well (AID 1619); format: functional
T4 sequence (Q8IL11 whole entry): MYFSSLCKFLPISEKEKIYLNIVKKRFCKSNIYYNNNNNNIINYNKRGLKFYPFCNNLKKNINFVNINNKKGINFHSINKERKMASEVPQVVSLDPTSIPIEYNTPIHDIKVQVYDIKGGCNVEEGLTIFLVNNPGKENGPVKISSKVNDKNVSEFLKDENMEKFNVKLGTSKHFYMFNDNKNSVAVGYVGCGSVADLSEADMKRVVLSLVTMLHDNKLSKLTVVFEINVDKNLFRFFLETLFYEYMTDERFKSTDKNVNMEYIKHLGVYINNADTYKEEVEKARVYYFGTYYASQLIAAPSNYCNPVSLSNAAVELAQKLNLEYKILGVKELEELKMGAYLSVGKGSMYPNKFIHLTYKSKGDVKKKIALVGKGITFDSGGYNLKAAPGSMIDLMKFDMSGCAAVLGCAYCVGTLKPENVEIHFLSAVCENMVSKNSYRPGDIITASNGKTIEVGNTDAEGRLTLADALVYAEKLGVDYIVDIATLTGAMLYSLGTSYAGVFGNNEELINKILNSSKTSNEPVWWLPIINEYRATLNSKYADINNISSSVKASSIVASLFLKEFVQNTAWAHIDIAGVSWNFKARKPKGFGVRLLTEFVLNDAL

[11] = biological target: T5, Ubiquitin-conjugating enzyme E2 N (Homo sapiens, UniProt P61088); format: functional;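 further: Dose-response confirmation in a TR-FRET assay detecting UBC13-driven polyubiquitin chain formation, inhibition measured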
T5 sequence (P61088 whole entry): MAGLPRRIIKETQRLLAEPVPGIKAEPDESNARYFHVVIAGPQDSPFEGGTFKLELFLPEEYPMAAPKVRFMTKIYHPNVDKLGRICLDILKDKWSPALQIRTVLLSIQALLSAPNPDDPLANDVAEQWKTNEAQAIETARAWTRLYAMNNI

[12] = biological target: T6, Mannose-6-phosphate isomerase (Homo sapiens, UniProt P34949); assay: human PMI inhibitors, high substrate, primary screen, biochemical, fluorescence intensity, high mannose 6-phosphate (AID 1220)
T6 sequence (P34949 whole entry): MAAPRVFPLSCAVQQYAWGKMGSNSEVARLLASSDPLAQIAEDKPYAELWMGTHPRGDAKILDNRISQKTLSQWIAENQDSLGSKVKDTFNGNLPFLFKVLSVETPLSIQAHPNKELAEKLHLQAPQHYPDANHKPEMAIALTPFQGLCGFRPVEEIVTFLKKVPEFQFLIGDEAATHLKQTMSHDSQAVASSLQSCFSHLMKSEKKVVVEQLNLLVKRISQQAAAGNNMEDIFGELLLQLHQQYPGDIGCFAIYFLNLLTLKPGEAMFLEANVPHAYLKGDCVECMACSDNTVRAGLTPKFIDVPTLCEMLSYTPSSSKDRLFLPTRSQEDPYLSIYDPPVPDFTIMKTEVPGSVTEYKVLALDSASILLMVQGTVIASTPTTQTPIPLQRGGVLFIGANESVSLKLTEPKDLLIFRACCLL

[13] = test system: H9c2; assay: cells; format: functional, cell-based; conditions: Rattus norvegicus, H9c2, Myocardium;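 further: confirmatory concentration-response retest of ultra-high-throughput screening hits for modulation of myocardial damage; cell death induced by hydrogen peroxide oxidative stress; compound pretreatment for 60 min then peroxide exposure for 2 h; potency is for protecting the cells against peroxide damage rather than for killing them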
[14] = biological target: T7, Replicative DNA helicase DnaB (Mycobacterium tuberculosis, UniProt P9WMR3); assay: DnaB intein splicing inhibitors, dose response, biochemical, cell-free fluorescence (AID 449749); format: functional
T7 sequence (P9WMR3 whole entry): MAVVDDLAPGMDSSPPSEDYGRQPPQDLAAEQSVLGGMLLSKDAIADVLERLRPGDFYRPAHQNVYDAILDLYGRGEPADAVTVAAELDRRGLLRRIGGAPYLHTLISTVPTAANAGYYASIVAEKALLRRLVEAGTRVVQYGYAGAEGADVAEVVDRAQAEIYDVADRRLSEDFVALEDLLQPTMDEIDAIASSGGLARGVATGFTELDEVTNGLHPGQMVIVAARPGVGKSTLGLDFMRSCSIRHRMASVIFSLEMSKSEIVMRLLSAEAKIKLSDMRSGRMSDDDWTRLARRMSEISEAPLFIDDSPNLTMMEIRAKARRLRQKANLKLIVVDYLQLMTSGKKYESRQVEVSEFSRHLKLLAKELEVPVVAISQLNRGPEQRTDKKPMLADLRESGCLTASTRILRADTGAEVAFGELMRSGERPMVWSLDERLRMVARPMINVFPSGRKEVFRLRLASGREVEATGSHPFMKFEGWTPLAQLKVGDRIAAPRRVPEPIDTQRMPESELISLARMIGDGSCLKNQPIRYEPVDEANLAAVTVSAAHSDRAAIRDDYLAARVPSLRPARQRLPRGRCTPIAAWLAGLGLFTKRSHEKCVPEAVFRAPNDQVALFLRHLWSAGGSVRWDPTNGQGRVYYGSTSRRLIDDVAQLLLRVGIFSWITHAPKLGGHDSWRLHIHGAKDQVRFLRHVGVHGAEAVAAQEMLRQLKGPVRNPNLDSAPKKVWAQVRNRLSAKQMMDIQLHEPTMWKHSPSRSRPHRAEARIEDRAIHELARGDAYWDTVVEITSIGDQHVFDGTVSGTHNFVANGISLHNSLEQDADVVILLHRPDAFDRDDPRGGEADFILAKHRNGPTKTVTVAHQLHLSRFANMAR

[15] = biological target: T8, Protein RecA (Mycobacterium tuberculosis, UniProt P9WHJ3); assay: Fluorescence Cell-Free Homogeneous Dose Retest to Identify Inhibitors of RecA-Intein Splicing Activity. [Related pubchem assays (depositor defined):AID2097, AID2223, AID489010, AID492950]; format: functional
T8 sequence (P9WHJ3 whole entry): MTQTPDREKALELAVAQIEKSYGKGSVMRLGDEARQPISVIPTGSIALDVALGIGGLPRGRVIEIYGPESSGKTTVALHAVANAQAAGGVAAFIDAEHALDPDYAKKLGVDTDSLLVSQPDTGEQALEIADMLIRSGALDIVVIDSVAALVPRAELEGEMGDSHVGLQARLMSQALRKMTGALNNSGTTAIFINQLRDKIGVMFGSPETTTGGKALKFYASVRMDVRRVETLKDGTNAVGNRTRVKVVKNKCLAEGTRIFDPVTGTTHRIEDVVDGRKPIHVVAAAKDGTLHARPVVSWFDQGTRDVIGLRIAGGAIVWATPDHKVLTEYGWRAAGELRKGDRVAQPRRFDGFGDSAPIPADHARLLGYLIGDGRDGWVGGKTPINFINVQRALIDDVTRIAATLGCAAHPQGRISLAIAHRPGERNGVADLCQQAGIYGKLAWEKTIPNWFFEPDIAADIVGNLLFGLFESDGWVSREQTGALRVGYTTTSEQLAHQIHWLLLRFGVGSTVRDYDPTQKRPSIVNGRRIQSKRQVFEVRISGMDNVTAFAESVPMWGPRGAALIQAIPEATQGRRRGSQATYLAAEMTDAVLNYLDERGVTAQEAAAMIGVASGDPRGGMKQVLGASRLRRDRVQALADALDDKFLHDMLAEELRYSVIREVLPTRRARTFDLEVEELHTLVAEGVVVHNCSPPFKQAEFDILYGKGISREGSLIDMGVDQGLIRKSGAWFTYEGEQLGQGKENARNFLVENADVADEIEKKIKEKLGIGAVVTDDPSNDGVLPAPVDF

[16] = MC4R antagonists, dose response, counter-screen for LGR2 antagonist project, cell-based, plate reader, cherry pick (AID 743444); format: functional;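 further: transfected HEK 293 cells stimulated with alpha-MSH peptide; potency of inhibitors of the alpha-MSH evoked signal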
[17] = LGR2 antagonists, dose response, cell-based, HEK293, CRE-luciferase reporter, cherry pick, set 2 (AID 743343); format: functional;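 further: transfected cells were stimulated with diluted bursicon conditioned medium after compound addition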
[18] = biological target: Genome polyprotein (dengue virus type 2, UniProt P29990); assay: Dengue-2 NS5 methyltransferase inhibitors, primary screen, biochemical, confirmation dose response (AID 588689); format: functional
Chain of Genome polyprotein (P29990 2492-3391 limits assumed): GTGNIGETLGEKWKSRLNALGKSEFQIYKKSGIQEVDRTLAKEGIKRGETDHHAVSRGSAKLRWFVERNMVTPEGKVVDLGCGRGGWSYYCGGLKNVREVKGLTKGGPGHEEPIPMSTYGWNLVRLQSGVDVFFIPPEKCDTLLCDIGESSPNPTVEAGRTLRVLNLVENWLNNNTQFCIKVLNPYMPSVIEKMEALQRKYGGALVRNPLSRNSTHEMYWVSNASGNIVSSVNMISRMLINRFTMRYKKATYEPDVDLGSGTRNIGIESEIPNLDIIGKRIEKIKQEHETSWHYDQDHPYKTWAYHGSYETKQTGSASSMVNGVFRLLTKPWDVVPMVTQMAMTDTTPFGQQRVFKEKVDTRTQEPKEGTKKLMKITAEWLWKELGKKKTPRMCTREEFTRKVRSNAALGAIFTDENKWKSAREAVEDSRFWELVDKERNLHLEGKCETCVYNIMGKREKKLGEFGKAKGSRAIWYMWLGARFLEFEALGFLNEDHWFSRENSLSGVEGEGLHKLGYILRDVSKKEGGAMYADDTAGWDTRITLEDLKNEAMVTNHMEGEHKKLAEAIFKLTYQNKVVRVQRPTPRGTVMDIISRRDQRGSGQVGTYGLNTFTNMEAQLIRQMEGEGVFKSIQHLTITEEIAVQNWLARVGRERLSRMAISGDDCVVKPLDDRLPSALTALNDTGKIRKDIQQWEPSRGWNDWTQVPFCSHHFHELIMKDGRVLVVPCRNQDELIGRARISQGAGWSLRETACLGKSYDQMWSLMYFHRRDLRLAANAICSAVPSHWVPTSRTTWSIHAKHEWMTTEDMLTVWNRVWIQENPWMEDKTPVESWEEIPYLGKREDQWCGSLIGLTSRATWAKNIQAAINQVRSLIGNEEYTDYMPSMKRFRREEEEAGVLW

SMILES: Cc1cccc(-c2cc3nc(C)cc(N4CC(C)CC(C)C4)n3n2)c1 (stereo not given)
- EC50 [1]: 27.8 µM (active)
- IC50 [2]: > 29.9 µM (inactive)
- EC50 [3]: 7.1 µM (active)
- IC50 [4]: > 29.9 µM (inactive)
- EC50 [5]: > 29.9 µM (inactive)
- AC50 [6]: 5.01 µM (active)
- EC50 [7]: 43.9 µM (active)

SMILES: CCCn1c(O)c(C#N)c(C)c(CN2CCCC(C)C2)c1=O (stereo not given)
- IC50 [2]: > 29.9 µM (inactive)
- EC50 [3]: 3.04 µM (active)
- EC50 [8]: > 300 µM (inconclusive)
- IC50 [4]: 13 µM (inactive)
- EC50 [5]: > 29.9 µM (inactive)
- EC50 [9]: 6.59 µM (active)

SMILES: CC(C)NC(=O)c1cc(C(=O)c2cc(Cl)ccc2O)coc1=N
- IC50 [10]: 2.15 µM (active)

SMILES: O=C(O)c1ccc(COc2ccc3ccccc3c2/C=C2/NC(=O)N(c3ccccc3)C2=O)cc1
- IC50 [10]: 24.6 µM (active)

SMILES: N#Cc1cccc(NC(=O)CN2NS(=O)(=O)c3ccccc3C2=O)c1
- IC50 [10]: 14.9 µM (active)

SMILES: CCNC(=O)NC(=O)C(C)Sc1ccc2c(c1)OCCO2 (stereo not given)
- IC50 [10]: 7.93 µM (active)

SMILES: CCOc1cc2c(C#N)c(N3CCNCC3)nc(N)c2c(N)n1
- IC50 [2]: > 29.9 µM (inactive)
- EC50 [3]: 5.69 µM (active)
- IC50 [4]: 8.23 µM (active)
- EC50 [5]: > 29.9 µM (inactive)
- IC50 [11]: > 20 µM (inactive)
- IC50 [12]: > 50 µM (not active)

SMILES: CCC(=O)OCCNc1cc(SCCC(=O)OC)c2nonc2c1[N+](=O)[O-]
- IC50 [13]: 14.5 µM (active)
- AC50 [14]: 116 µM (active)
- IC50 [12]: > 50 µM (not active)
- EC50 [15]: 5.12 µM (active)

SMILES: COC(=O)C1=C(C(=O)OC)SC(=C2C(=S)C(C)(C)N(C(=O)C(C)C)c3ccccc32)S1
- IC50 [12]: 7.38 µM (active)

SMILES: Cc1ccc(-c2cc(C(=O)N3CCOCC3)no2)cc1
- AC50 [16]: 2.81 µM (active)
- AC50 [17]: 2.95 µM (active)

SMILES: O=C(O)CC1S/C(=N/N=C/c2ccc(-c3ccccc3[N+](=O)[O-])o2)NC1=O (stereo not given)
- IC50 [18]: 89 µM (active)
- AC50 [14]: 12.1 µM (active)
- IC50 [12]: > 50 µM (not active)
- EC50 [15]: 4.31 µM (active)

SMILES: COc1ccc(O)c(/C=N/c2sc(C)c(C)c2C#N)c1
- IC50 [12]: > 50 µM (not active)
